# Test results published in ChEMBL document CHEMBL1649353, “Spectroscopic characterization and antiproliferative activity on HepG2 human hepatoblastoma cells of flavonoid C-glycosides from Petrorhagia velutina” (2010).
# Active and inactive are the calls of the source. No cut-off for these calls is given here.
# How the values were obtained:
# HepG2 [1] = test: Antiproliferative activity against human HepG2 cells at 25 uM after 48 hrs by MTT assay; assay type: functional
# HepG2 [2] = test: Antiproliferative activity against human HepG2 cells at 6.25 to 50 uM after 48 hrs by MTT assay; assay type: functional, cell-based
# HepG2 [3] = test: Antiproliferative activity against human HepG2 cells at 6.25 to 50 uM after 24 hrs by MTT assay; assay type: functional, cell-based
# HepG2 [4] = test: Antiproliferative activity against human HepG2 cells at 6.25 uM after 24 hrs by MTT assay; assay type: functional
# HepG2 [5] = test: Antiproliferative activity against human HepG2 cells at 25 uM after 24 hrs by MTT assay; assay type: functional
# HepG2 [6] = test: Antiproliferative activity against human HepG2 cells at 6.25 uM after 48 hrs by MTT assay; assay type: functional
# HepG2 [7] = test: Antiproliferative activity against human HepG2 cells at 12.5 uM after 48 hrs by MTT assay; assay type: functional
structure (smiles),measurement,setting,value
C[C@@H]1O[C@@H](O[C@@H]2[C@@H](O)[C@H](O)[C@@H](CO)O[C@H]2c2c(O)cc3oc(-c4ccc(O)c(O)c4)cc(=O)c3c2O)[C@H](O)[C@H](O)[C@H]1O,Activity,HepG2 [1],74.9%
C[C@@H]1O[C@@H](O[C@@H]2[C@@H](O)[C@@H](O)CO[C@H]2c2c(O)cc3oc(-c4ccc(O)c(O)c4)cc(=O)c3c2O)[C@H](O)[C@H](O)[C@H]1O,Activity,HepG2 [2],Active
O=C1C[C@@H](c2ccc(O)cc2)Oc2c1c(O)cc(O[C@@H]1O[C@H](CO)[C@@H](O)[C@H](O)[C@H]1O)c2[C@@H]1OC[C@H](O)[C@H](O)[C@H]1O,Activity,HepG2 [3],inactive
O=c1cc(-c2ccc(O)c(O)c2)oc2cc(O)c([C@@H]3O[C@H](CO)[C@@H](O)[C@H](O)[C@H]3O)c(O)c12 [ISOORIENTIN],Activity,HepG2 [4],19.6%
same,Activity,HepG2 [5],26.1%
same,Activity,HepG2 [6],84%
same,Activity,HepG2 [7],92%
